Measurements from US8853188B2, “Compositions and methods for cancer treatment” (Women and Infants Hospital of RI, Inc., priority 2005, dated 2014).
Entries after “also recorded” stand apart in the source; their conditions may differ.

Experiments:
[1] = mouse, in vivo
Experimental: FIG. 6A. In vivo studies to determine apparent systemic toxicity of B3CD. Mice were injected with the specified amounts of B3CD (i.p.) once in 48 hr for 28 days. The animals were weighed to assess the effect of B3CD on change in body weight.
FIG. 6B. At the end of the experiment (6A) mice were sacrificed and blood collected to estimate serum calcium as a measure of hypercalcemia.
A major concern was the potential systemic toxicity of B3CD due to hypercalcemia since B3CD (FIG. 1) is a derivative of calcidiol, which is a family member of calcitriol (Schmidt-Gayk H, Bouillon R, Roth H J. Measurement of vitamin D and its metabolites (calcidiol and calcitriol) and their clinical significance. Scand J Clin Lab Invest Suppl. 1997; 227:35-45). Therapeutic doses of calcitriol lead to increased serum calcium and consequently death; therefore, hypercalcemia is a hallmark of lethality of pharmacologic doses of calcitriol. In the event that further testing in vivo might show lethal calcemic side effects, preliminary studies were carried out to determine any overt toxic effects in a murine model.
The effect of B3CD on serum calcium levels in SCID mice was tested. These studies were carried out in Boston University School of Medicine, Boston, Mass., in accordance with institutional guidelines. B3CD, calcidiol and calcitriol were formulated in 80% polyethylene glycol in PBS and were administered as i.p. injections once in 48 hours for 28 days. Animals were euthanized, sera collected and analyzed immediately for serum calcium in the hospital core facility. The animals were divided into 4 groups of 5 animals each.

[2] = tested on: caspase-3; assay: Caspase-3 activation with specific substrate in SK-N-SH cells; format: cell-based; settings: 250 nM, compared to vehicle treated control
Experimental: Caspases are integral to apoptosis in cells. Following the treatment of SK-N-SH cells with 250 nM B3CD, activation of caspase-3 was measured by using specific substrate.

[3] = tested on: caspase-8; assay: Caspase-8 immunoblot in NB cells; format: cell-based; settings: SMS-KCNR cells
Experimental: FIG. 10D. Caspase-8 immunoblot.
In depth studies were carried out to assess the activation of intrinsic and extrinsic apoptotic pathways. […] Caspase-9 was activated by B3CD in these cells (FIG. 10B), indicating an active role of intrinsic pathway of apoptosis. […] However, caspase-8 was undetectable in IMR-32 and SH-SY5Y cells.
Although caspase-8 was detected in SMS-KCNR cells, it was not activated by B3CD (FIG. 10D). Actin immunoblotting was used as loading control in the above studies (data not shown).

[4] = tested on: SK-N-SH, SH-Sy5Y, SMS-KCN and SMS-R neuroblastic cells; assay: Viability and proliferation of neuroblastoma cells, 48 hrs; format: cell-based; parameters: inhibition of proliferation: dose or concentration left out as unconfirmed
Experimental: (§1) Materials and methods. Proliferation was measured by MTS and BrdU incorporation assays. Apoptosis was assessed by DNA fragmentation, Cell Death Detection ELISA and caspase-3-assays. Effect of B3CD on TrkB signaling by BDNF was assessed by Western Blot analysis of AKT and ERK phosphorylation. The effect on angiogenesis was determined by chick chorioallantoic membrane (CAM) assay and aortic ring assay.
Neuroblastoma cells were treated with B3CD for 48 hrs. […] AT 0.5 nM, B3CD inhibited >50% (p<0.035) and >90% at […] (p<0.01) viability and proliferation respectively.

[5] = tested on: IMR-32 cells; assay: Proliferation of apoptosis-resistant NB cells; format: cell-based; settings: data not shown
[6] = tested on: ovarian cancer cells; assay: Apoptosis by DNA fragmentation, FIG. 4A; format: cell-based
Experimental: as §1
(§2) B3CD was tested on the panel of cell described above. […] Such cell-type specificity is not uncommon. […] However, keratinocytes were not affected by B3CD (FIG. 4A; Lane-2). In addition, caspase-3 activity was increased by B3CD (FIG. 4B). These studies indicated an underlying apoptotic mechanism in the anticancer activity of B3CD.

[7] = tested on: prostate cancer cells; assay: Apoptosis by DNA fragmentation, FIG. 4A; format: cell-based
Experimental: as §1, §2

[8] = tested on: keratinocytes; assay: Apoptosis by DNA fragmentation, FIG. 4A; format: cell-based
Experimental: as §1, §2

[9] = tested on: Human umbilical vein endothelial cells (HUVEC); assay: Endothelial cell BrdU incorporation assay; format: cell-based; settings: 25-400 nM, 24 hours
Experimental: Human umbilical vein endothelial cells (HUVEC) were treated with B3CD (25, 50, 100, 200 and 400 nM) for 24 hours and proliferation was measured as before. Vehicle and CD treated controls were used in each experiment. […] Following the treatment with B3CD, the endothelial cells were rounded up and floated, showing indications of apoptosis similar to NB.

[10] = tested on: ovarian cancer cells; assay: Proliferation (MTS, BrdU), FIG. 3; format: cell-based
Experimental: as §1, §2

[11] = tested on: macrophage cells; assay: Proliferation (MTS, BrdU), FIG. 3; format: cell-based
Experimental: as §1, §2

[12] = tested on: breast cells; assay: Proliferation (MTS, BrdU), FIG. 3; format: cell-based
Experimental: as §1, §2

[13] = tested on: prostate cancer cells; assay: Proliferation (MTS, BrdU), FIG. 3; format: cell-based
Experimental: as §1, §2

[14] = tested on: osteosarcoma cells; assay: Proliferation (MTS, BrdU), FIG. 3; format: cell-based
Experimental: as §1, §2

[15] = tested on: endothelial cells; assay: Proliferation (MTS, BrdU), FIG. 3; format: cell-based
Experimental: as §1, §2

[16] = tested on: pancreatic cells; assay: Proliferation (MTS, BrdU), FIG. 3; format: cell-based
Experimental: as §1, §2

[17] = tested on: smooth muscle cells; assay: Proliferation (MTS, BrdU), FIG. 3; format: cell-based
Experimental: as §1, §2

[18] = tested on: neuroblastic cells; assay: Proliferation (MTS, BrdU), FIG. 3; format: cell-based
Experimental: as §1, §2

[19] = tested on: skin cells; assay: Proliferation (MTS, BrdU), FIG. 3; format: cell-based
Experimental: as §1, §2

## C=C1CC[C@H](OC(=O)CBr)C/C1=C/C=C1\CCC[C@]2(C)[C@@H]([C@H](C)CCCC(C)(C)O)CC[C@@H]12 [B3CD, bromoacetic acid 3-{2-[1-(5-hydroxy-1,5-dimethyl-hexyl)-7a-methyl-octahydro-inden-4-ylidene]-ethylidene}-4-methylene-cyclohexyl ester]
[1]
  clinical signs (lethargy, tolerance to handling, mobility): showed no such signs
  toxicity in murine models: no toxicity
[2]
  increase of caspase-3 activity: ~6 fold
[3]
  caspase-8 activation (immunoblot): not activated
[4]
  inhibition of proliferation (in words): dose dependent manner
[4]; Neuroblastoma cell, 0.5 nM, p<0.035, read-out: inhibition of viability
  cytotoxicity at 0.0005 µM: > 50%
[4]; p<0.01
  inhibition of proliferation: > 90%
[5]
  inhibition of proliferation: dose dependent inhibition of proliferation
[6]
  DNA laddering (apoptosis): distinct DNA laddering characteristic of apoptosis
[7]
  DNA laddering (apoptosis): distinct DNA laddering characteristic of apoptosis
[8]
  DNA laddering (apoptosis): not affected
[9]
  BrdU incorporation: strongly inhibited BrdU incorporation
[10]
  antiproliferative and cytotoxic effects: potent antiproliferative and cytotoxic effects
[11]
  effect on proliferation: did not show an effect on proliferation
[12]
  effect on proliferation: did not show an effect on proliferation
[13]
  antiproliferative and cytotoxic effects: potent antiproliferative and cytotoxic effects
[14]
  effect on proliferation: did not show an effect on proliferation
[15]
  antiproliferative and cytotoxic effects: potent antiproliferative and cytotoxic effects; also recorded: inhibit proliferation
[16]
  effect on proliferation: did not show an effect on proliferation
[17]
  effect on proliferation: did not show an effect on proliferation
[18]
  antiproliferative and cytotoxic effects: potent antiproliferative and cytotoxic effects
[18]; by 24 hours
  cell viability: less than 15 % of the untreated control cells
[19]
  effect on proliferation: did not show an effect on proliferation
